Here are results for one compound from ChEMBL document CHEMBL4823263, “Discovery of 2-(3-(3-Carbamoylpiperidin-1-yl)phenoxy)acetic Acid Derivatives as Novel Small-Molecule Inhibitors of the β-Catenin/B-Cell Lymphoma 9 Protein-Protein Interaction” (J Med Chem, 2021).

SMILES strings stand for the structures.

Data set [1] relates to SW480. The experiment in a line: Antiproliferative activity against human SW480 cells incubated for 72 hrs by MTS assay. Particulars: SW480, 72 h. It is filed as functional, cell-based. In general terms: Tetrazolium assays rely on reduction of a dye to a coloured formazan, in cell work by metabolically active cells.
Data set [2] is described as follows: (§1) Inhibition of Wnt/beta-catenin transactivation signalling in human SW480 cells harboring wild type tcf4 binding sites incubated for 24 hrs by TOPFlash luciferase assay. Format: cell-based.
The subject of data set [3] is SW480. Described as §1. It is filed as cell-based.
The test system of data set [4] is SW480. In words: Inhibition of Wnt/beta-catenin transactivation signalling in human SW480 cells harboring mutant tcf4 binding sites assessed as relative activity at 3.125 uM incubated for 24 hrs by FOPFlash luciferase assay relative to control. On the set-up: scale not given: the % may be the effect or the level left. It is filed as cell-based.
The subject of data set [5] is SW480. The experiment in a line: Inhibition of Wnt/beta-catenin transactivation signalling in human SW480 cells harboring mutant tcf4 binding sites assessed as relative activity at 12.5 uM incubated for 24 hrs by FOPFlash luciferase assay relative to control. On the set-up: scale not given: the % may be the effect or the level left. It is filed as cell-based.
Data set [6] addresses Protein Wnt-3a (Mus musculus) (UniProt P27467). The experiment in a line: Inhibition of mouse wnt3a expressed in human MDA-MB-231 cells assessed as Axin2 level at 3.3 uM incubated for […] by quantitative real-time PCR analysis relative to control. It is filed as cell-based. On the set-up: scale not given: the % may be the effect or the level left. In general terms: In qPCR the cycle at which signal appears reflects the starting amount.

Data set [7] shares this target. The experiment in a line: Inhibition of mouse wnt3a expressed in human MDA-MB-231 cells assessed as cyclin D1 level at 3.3 uM incubated for […] by quantitative real-time PCR analysis relative to control. It is filed as cell-based. On the set-up: scale not given: the % may be the effect or the level left.
The target is the same in data set [8]. The experiment in a line: Inhibition of mouse wnt3a expressed in human MDA-MB-231 cells assessed as cyclin D1 level at 30 uM incubated for […] by quantitative real-time PCR analysis relative to control. It is filed as cell-based. On the set-up: scale not given: the % may be the effect or the level left.
Data set [9] shares this target. The experiment in a line: Inhibition of mouse wnt3a expressed in human MDA-MB-231 cells assessed as LEF1 level at 3.3 uM incubated for […] by quantitative real-time PCR analysis relative to control. Format: cell-based. On the set-up: scale not given: the % may be the effect or the level left.
For data set [10] the target is unchanged. In words: Inhibition of mouse wnt3a expressed in human MDA-MB-231 cells assessed as LEF1 level at 10 uM incubated for […] by quantitative real-time PCR analysis relative to control. On the set-up: scale not given: the % may be the effect or the level left. It is filed as cell-based.
The nature of data set [11]: Downregulation of HPRT in human MDA-MB-231 cells assessed as HPRT level at 3.3 uM incubated for […] by quantitative real-time PCR analysis relative to control. Format: ADME, cell-based. Particulars: mda-mb-231, 3.3 µM.
Data set [12] addresses Protein Wnt-3a (Homo sapiens) (UniProt P56704). In words: Inhibition of Wnt3a in human SW480 cells assessed as Axin2 level at 30 uM incubated for […] by quantitative real-time PCR analysis relative to control. Format: cell-based. On the set-up: scale not given: the % may be the effect or the level left.
For data set [13] the target is unchanged. The experiment in a line: Inhibition of Wnt3a in human SW480 cells assessed as LEF1 level at 30 uM incubated for […] by quantitative real-time PCR analysis relative to control. It is filed as cell-based. On the set-up: scale not given: the % may be the effect or the level left.
The test system of data set [14] is SW480. In words: Inhibition of Wnt signalling in human SW480 cells assessed as reduction in cyclinD1 expression incubated for 24 hrs by Western blot analysis. It is filed as cell-based. A general note: Immunoblotting shows a protein as a band on a membrane.
A short description of data set [15]: Selectivity ratio of IC50 for human SW480 cells harboring beta-catenin pcDNA3.1 vector to IC50 for human SW480 cells harboring empty pcDNA3.1 vector.
The target in data set [16] is Protein Wnt-3a (Mus musculus) (UniProt P27467). The experiment in a line: Inhibition of mouse wnt3a expressed in human MDA-MB-231 cells assessed as LEF1 level at 30 uM incubated for […] by quantitative real-time PCR analysis relative to control. On the set-up: scale not given: the % may be the effect or the level left. Format: cell-based.
Protein Wnt-3a (Mus musculus), sequence (P27467 whole entry): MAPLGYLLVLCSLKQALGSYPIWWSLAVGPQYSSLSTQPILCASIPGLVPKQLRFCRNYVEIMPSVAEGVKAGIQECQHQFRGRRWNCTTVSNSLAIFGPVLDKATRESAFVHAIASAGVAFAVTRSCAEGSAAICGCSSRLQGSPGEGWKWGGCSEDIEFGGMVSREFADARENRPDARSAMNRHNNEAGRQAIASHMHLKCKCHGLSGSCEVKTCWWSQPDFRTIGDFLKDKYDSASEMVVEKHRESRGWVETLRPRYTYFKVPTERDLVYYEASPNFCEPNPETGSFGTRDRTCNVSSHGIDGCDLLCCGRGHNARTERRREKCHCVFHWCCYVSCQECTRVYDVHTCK

Protein Wnt-3a (Homo sapiens), sequence (P56704 whole entry): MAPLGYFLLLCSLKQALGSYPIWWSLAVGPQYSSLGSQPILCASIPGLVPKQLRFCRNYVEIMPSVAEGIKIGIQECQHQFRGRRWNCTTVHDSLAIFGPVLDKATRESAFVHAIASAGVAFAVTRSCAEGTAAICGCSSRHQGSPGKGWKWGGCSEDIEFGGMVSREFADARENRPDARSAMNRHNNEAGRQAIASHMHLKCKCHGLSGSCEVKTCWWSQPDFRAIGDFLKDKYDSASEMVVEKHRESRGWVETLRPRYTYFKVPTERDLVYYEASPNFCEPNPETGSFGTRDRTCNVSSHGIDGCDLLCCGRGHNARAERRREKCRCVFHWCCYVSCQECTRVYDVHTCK

What is called IC50 is the concentration needed to halve the response being measured. In the case of `CC(C)(Oc1cccc(N2CCC[C@H](C(=O)N(Cc3ccc(-c4cccs4)cc3)C3CC3)C2)c1)C(=O)NS(=O)(=O)c1ccc(C#N)cc1`, the concentration for half-maximal inhibition (IC50) in the data set with SW480 [1] is 16.3 µM; in data set [2], 6.6 µM. In addition, the Activity result with SW480 [3] was “Dose-Dependent Effect”; with SW480 [4], 99%; in the data set with SW480 [5], 102%; in data set [6], 69%; in data set [7], 94%; in [8], 66%. The Activity in data set [9] was 87%; in data set [10], 81%; in data set [11] it was 102%; in data set [12], 42%; in [13], 76%; in the data set with SW480 [14], “Dose-Dependent Effect”. The Activity in data set [16] was found to be 76%. The “Ratio IC50” value in data set [15] amounted to 4.
